# Data as given in PMC8426237, “A first-in-human phase I study of TAS0728, an oral covalent binding inhibitor of HER2, in patients with advanced solid tumors with HER2 or HER3 aberrations” (Investigational New Drugs, 2021).
# Test: Phase I safety assessment: adverse events (CTCAE v5.0) in patients
# [1] = 50-mg dose level cohort, 2 of 3
# [2] = Dose Level 1: 50 mg BID (N = 3)
# [3] = Dose Level 2: 100 mg BID (N = 3)
# [4] = Dose Level 3: 200 mg BID (N = 7)
# Description: A DLT was defined as a study treatment-related adverse event (TRAE), according to the Common Terminology Criteria for Adverse Events (CTCAE, Version 5.0), with qualifying criteria for certain DLTs (e.g., Grade ≥ 3 diarrhea, was included as a DLT only if lasting >48 h and unresponsive to intensive antidiarrheal medication).
# Patients were closely monitored for these potential toxicities during the current study. Safety assessments included recording of AEs and serious AEs (SAEs) from the time of signing the study informed consent form to 30 days after the last dose of study medication. Safety parameters including laboratory evaluations (hematology, coagulation, chemistry, and urinalysis), vital sign measurements and body weight, electrocardiogram (ECG) recordings, ECOG performance status, echocardiogram or multi-gated acquisition (MUGA), and physical examination were assessed at screening, during the study and at 30 days following the last dose. The use of concomitant medications was permitted and details for such medications were recorded.
smiles,measurement,setting,value
C=CC(=O)N1CCC[C@@H](n2nc(C(=O)Nc3ccc(CC(=O)N(C)C)c(C)c3C)c3c(N)ncnc32)C1 [TAS0728],Patients with AEs,50 mg BID (N = 3),"3 (100) n, (%)"
same,Patients with AEs that had an outcome of death,50 mg BID (N = 3),"0 n, (%)"
same,Patients with AEs that led to study treatment discontinuation,50 mg BID (N = 3),"0 n, (%)"
same,Patients with Grade ≥ 3 AEs,50 mg BID (N = 3),"2 (66.7) n, (%)"
same,Patients with SAEs,50 mg BID (N = 3),"1 (33.3) n, (%)"
same,Patients with treatment-related AEs,50 mg BID (N = 3),"3 (100) n, (%)"
same,Patients with treatment-related and Grade ≥ 3 AEs,50 mg BID (N = 3),"0 n, (%)"
same,Patients with AEs,100 mg BID (N = 3),"3 (100) n, (%)"
same,Patients with AEs that had an outcome of death,100 mg BID (N = 3),"0 n, (%)"
same,Patients with AEs that led to study treatment discontinuation,100 mg BID (N = 3),"1 (33.3) n, (%)"
same,Patients with Grade ≥ 3 AEs,100 mg BID (N = 3),"0 n, (%)"
same,Patients with SAEs,100 mg BID (N = 3),"0 n, (%)"
same,Patients with treatment-related AEs,100 mg BID (N = 3),"3 (100) n, (%)"
same,Patients with treatment-related and Grade ≥ 3 AEs,100 mg BID (N = 3),"0 n, (%)"
same,Patients with AEs,150 mg BID (N = 6),"6 (100) n, (%)"
same,Patients with AEs that had an outcome of death,150 mg BID (N = 6),"1 (16.7) n, (%)"
same,Patients with AEs that led to study treatment discontinuation,150 mg BID (N = 6),"1 (16.7) n, (%)"
same,Patients with Grade ≥ 3 AEs,150 mg BID (N = 6),"3 (50.0) n, (%)"
same,Patients with SAEs,150 mg BID (N = 6),"4 (66.7) n, (%)"
same,Patients with treatment-related AEs,150 mg BID (N = 6),"5 (83.3) n, (%)"
same,Patients with treatment-related and Grade ≥ 3 AEs,150 mg BID (N = 6),"2 (33.3) n, (%)"
same,Patients with fatal cardiac arrest (Grade 5),"150 mg BID, after 1 cycle (21 days)",one
same,Patients with AEs,200 mg BID (N = 7),"7 (100) n, (%)"
same,Patients with AEs that had an outcome of death,200 mg BID (N = 7),"0 n, (%)"
same,Patients with AEs that led to study treatment discontinuation,200 mg BID (N = 7),"1 (14.3) n, (%)"
same,Patients with Grade ≥ 3 AEs,200 mg BID (N = 7),"4 (57.1) n, (%)"
same,Patients with SAEs,200 mg BID (N = 7),"3 (42.9) n, (%)"
same,Patients with treatment-related AEs,200 mg BID (N = 7),"6 (85.7) n, (%)"
same,Patients with treatment-related and Grade ≥ 3 AEs,200 mg BID (N = 7),"4 (57.1) n, (%)"
same,Patients who worsened to an ECOG status of 2,"1 in each of the 200-mg and 150-mg BID cohorts, ECOG 1 at baseline",2
same,Treatment discontinuation due to AEs,1 patient of 19,5.3%
same,Treatment discontinuation due to fatal cardiac arrest,1 patient of 19,5.3%
same,Patients with diarrhea at a severity ≥Grade 3,50-mg dose level cohort,1
same,Patients with diarrhea,[1],66.7%
same,Patients with hyperuricemia,[1],66.7%
same,Patients with diarrhea (all Grade 1 or Grade 2),"100-mg dose level cohort, all 3",100%
same,Patients with diarrhea at a severity ≥Grade 3,200-mg dose,3
same,Patients with asthenia,"200-mg dose, 2/7",28.6%
same,Patients with decreased appetite,"200-mg dose, 2/7",28.6%
same,Patients with dry skin,"200-mg dose, 2/7",28.6%
same,Patients with edema peripheral,"200-mg dose, 2/7",28.6%
same,Patients with hypokalemia,"200-mg dose, 2/7",28.6%
same,Patients with nausea,"200-mg dose, 2/7",28.6%
same,Patients with vomiting,"200-mg dose, 2/7",28.6%
same,Patients with cough,"200-mg dose, 3/7",42.9%
same,Patients with dermatitis acneiform,"200-mg dose, 3/7",42.9%
same,Patients with fatigue,"200-mg dose, 3/7",42.9%
same,Patients with pyrexia,"200-mg dose, 3/7",42.9%
same,Patients with anemia,"200-mg dose, 5/7",71.4%
same,Patients with diarrhea,"200-mg dose, 6 of 7",85.7%
same,"Adverse events experienced in ≥10% patients, Grade 1",[2],3 (100) n (%)
same,"Adverse events experienced in ≥10% patients, Grade 2",[2],1 (33.3) n (%)
same,"Adverse events experienced in ≥10% patients, Grade 3",[2],2 (66.7) n (%)
same,"Adverse events experienced in ≥10% patients, Grade 4",[2],1 (33.3) n (%)
same,"Adverse events experienced in ≥10% patients, Grade 5",[2],0 n (%)
same,"Adverse events experienced in ≥10% patients, Total",[2],3 (100) n (%)
same,"Adverse events experienced in ≥10% patients, ≥Grade 3",[2],2 (66.7) n (%)
same,"Diarrhea, Grade 1",[2],2 (66.7) n (%)
same,"Diarrhea, Grade 2",[2],1 (33.3) n (%)
same,"Diarrhea, Grade 3",[2],1 (33.3) n (%)
same,"Diarrhea, Grade 4",[2],0 n (%)
same,"Diarrhea, Grade 5",[2],0 n (%)
same,"Diarrhea, Total",[2],2 (66.7) n (%)
same,"Diarrhea, ≥Grade 3",[2],1 (33.3) n (%)
same,"Hyperuricemia, Grade 1",[2],2 (66.7) n (%)
same,"Hyperuricemia, Grade 2",[2],0 n (%)
same,"Hyperuricemia, Grade 3",[2],0 n (%)
same,"Hyperuricemia, Grade 4",[2],0 n (%)
same,"Hyperuricemia, Grade 5",[2],0 n (%)
same,"Hyperuricemia, Total",[2],2 (66.7) n (%)
same,"Hyperuricemia, ≥Grade 3",[2],0 n (%)
same,"Adverse events experienced in ≥10% patients, Grade 1",[3],3 (100) n (%)
same,"Adverse events experienced in ≥10% patients, Grade 2",[3],2 (66.7) n (%)
same,"Adverse events experienced in ≥10% patients, Grade 3",[3],0 n (%)
same,"Adverse events experienced in ≥10% patients, Grade 4",[3],0 n (%)
same,"Adverse events experienced in ≥10% patients, Grade 5",[3],0 n (%)
same,"Adverse events experienced in ≥10% patients, Total",[3],3 (100) n (%)
same,"Adverse events experienced in ≥10% patients, ≥Grade 3",[3],0 n (%)
same,"Diarrhea, Grade 1",[3],3 (100) n (%)
same,"Diarrhea, Grade 2",[3],1 (33.3) n (%)
same,"Diarrhea, Grade 3",[3],0 n (%)
same,"Diarrhea, Grade 4",[3],0 n (%)
same,"Diarrhea, Grade 5",[3],0 n (%)
same,"Diarrhea, Total",[3],3 (100) n (%)
same,"Diarrhea, ≥Grade 3",[3],0 n (%)
same,"Adverse events experienced in ≥10% patients, Grade 1",[4],6 (85.7) n (%)
same,"Adverse events experienced in ≥10% patients, Grade 2",[4],7 (100) n (%)
same,"Adverse events experienced in ≥10% patients, Grade 3",[4],4 (57.1) n (%)
same,"Adverse events experienced in ≥10% patients, Grade 4",[4],0 n (%)
same,"Adverse events experienced in ≥10% patients, Grade 5",[4],0 n (%)
same,"Adverse events experienced in ≥10% patients, Total",[4],7 (100) n (%)
same,"Adverse events experienced in ≥10% patients, ≥Grade 3",[4],4 (57.1) n (%)
same,"Anemia, Grade 1",[4],2 (28.6) n (%)
same,"Anemia, Grade 2",[4],3 (42.9) n (%)
same,"Anemia, Grade 3",[4],1 (14.3) n (%)
same,"Anemia, Grade 4",[4],0 n (%)
same,"Anemia, Grade 5",[4],0 n (%)
same,"Anemia, Total",[4],5 (71.4) n (%)
same,"Anemia, ≥Grade 3",[4],1 (14.3) n (%)
same,"Asthenia, Grade 1",[4],2 (28.6) n (%)
same,"Asthenia, Grade 2",[4],1 (14.3) n (%)
same,"Asthenia, Grade 3",[4],0 n (%)
same,"Asthenia, Grade 4",[4],0 n (%)
same,"Asthenia, Grade 5",[4],0 n (%)
same,"Asthenia, Total",[4],2 (28.6) n (%)
same,"Asthenia, ≥Grade 3",[4],0 n (%)
same,"Cough, Grade 1",[4],3 (42.9) n (%)
same,"Cough, Grade 2",[4],0 n (%)
same,"Cough, Grade 3",[4],0 n (%)
same,"Cough, Grade 4",[4],0 n (%)
same,"Cough, Grade 5",[4],0 n (%)
same,"Cough, Total",[4],3 (42.9) n (%)
same,"Cough, ≥Grade 3",[4],0 n (%)
same,"Decreased appetite, Grade 1",[4],1 (14.3) n (%)
same,"Decreased appetite, Grade 2",[4],1 (14.3) n (%)
same,"Decreased appetite, Grade 3",[4],0 n (%)
same,"Decreased appetite, Grade 4",[4],0 n (%)
same,"Decreased appetite, Grade 5",[4],0 n (%)
same,"Decreased appetite, Total",[4],2 (28.6) n (%)
same,"Decreased appetite, ≥Grade 3",[4],0 n (%)
same,"Dermatitis acneiform, Grade 1",[4],2 (28.6) n (%)
same,"Dermatitis acneiform, Grade 2",[4],1 (14.3) n (%)
same,"Dermatitis acneiform, Grade 3",[4],0 n (%)
same,"Dermatitis acneiform, Grade 4",[4],0 n (%)
same,"Dermatitis acneiform, Grade 5",[4],0 n (%)
same,"Dermatitis acneiform, Total",[4],3 (42.9) n (%)
